The text below walks through data of PMC11345766, “Computational Design of Pore-Forming Peptides with Potent Antimicrobial and Anticancer Activities” (Journal of Medicinal Chemistry, 2024).

Ends that are not written are not given here.

Data set [1] relates to E. coli (TOP10). Put plainly: Broth microdilution antimicrobial susceptibility assay. The data set is classed as cell-based, Escherichia coli. Put shortly:
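Bacteria were grown on MHA for 24 h, subcultured in MHB for 6 h at 37 °C and diluted to 10^6 CFU/mL. Compounds were serially diluted from 50 to 0.1 μM, inoculated and incubated for 24 h at 37 °C. MIC was the lowest concentration with no visible turbidity.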
In general terms: Dilution methods test growth across graded concentrations, often in twofold steps.

For data set [2], the system named is HCT-15. Kind of data set: cells. Particulars: 72 h. Type of data set: cell-based, human. On the procedure:
(§1) The CellTiter-Glo luminescent cell viability assay examining the impact of peptides on 22 different human cell lines was purchased from Reaction Biology Europe GmbH (Germany). Cells were cultured in different media (Table S1), seeded into a flat-bottom 96-well plate, and incubated at 37 °C. After overnight incubation, test compounds were added with 1% PBS/0.3% Tween 20 and the reference compound bortezomib was added with 0.1% DMSO. Negative controls were solvents alone, and positive control was 10 μM staurosporine. After 72 h of incubation at 37 °C, 5 or 10% CO2 (dependent on the medium), and 1 h equilibration at room temperature, well plates were treated with CellTiter-Glo reagent (Promega) for an hour and luminescence was measured using a luminometer.
(§2) Table S1. In vitro activity against 22 different human cancer cell lines.
(§3) Sr. Cancer Activity (in M)
(§4) no. Cell line type Culture medium
(§5) The effect of investigated compounds on the proliferation of 22 different human cell lines is
(§6) Twenty of these 22 cell lines represent specific cancer types and 2 were non-cancerous. Peptide
(§7) Anticancer drug bortezomib was used as the […]

The test system of data set [3] is RPMI 8226. Put plainly: cells. Type of data set: cell-based, human. Conditions: 72 h. On the procedure:
as §1, §2, §3, §4, §5, §6, §7

Data set [4] relates to OVCAR-3. Put plainly: cells. The data set is classed as cell-based, human. Particulars: 72 h. On the procedure:
as §1, §2, §3, §4, §5, §6, §7

In data set [5] the test system is MDA MB 435. Kind of data set: cells. Type of data set: cell-based, human. Particulars: 72 h. On the procedure:
as §1, §2, §3, §4, §5, §6, §7

In data set [6] the test system is P. aeruginosa K11 (IMI, MER, CTZ, PIT). Particulars: P. aeruginosa / K11 / IMI, MER, CTZ, PIT / Prot. c; Prot. c.
Data set [7] concerns S. aureus ATCC 29213 (Clinical). Particulars: S. aureus / ATCC 29213 / Clinical / Prot. c; Prot. c.
In data set [8] the test system is P. aeruginosa PA14 (WT). Particulars: P. aeruginosa / PA14 / WT / Prot. d; Prot. d.
Data set [9] concerns S. aureus NRS1 (MRSA or VISA). Particulars: S. aureus / NRS1 / MRSA or VISA / Prot. a; Prot. a.
Data set [10] concerns E. faecalis UCN41 (VAN). Particulars: E. faecalis / UCN41 / VAN / Prot. b; Prot. b.
Data set [11] concerns E. faecalis JH2-2 (WT). Particulars: E. faecalis / JH2-2 / WT / Prot. b; Prot. b.
The subject of data set [12] is P. aeruginosa NCTC 13437 (ESBL). Particulars: P. aeruginosa / NCTC 13437 / ESBL / Prot. a; Prot. a.
Data set [13] concerns E. faecium Z906 (VAN, TEI, LNZ). Particulars: E. faecium / Z906 / VAN, TEI, LNZ / Prot. c; Prot. c.
Data set [14] concerns E. faecalis ATCC 700802 (VAN). Conditions: E. faecalis / ATCC 700802 / VAN / Prot. d; Prot. d.
The conditions of data set [15]: single intraperitoneal dose at 10 times the MIC.
Description: Neutropenic mice were infected intramuscularly (in the right thigh) with 10^6 cells per mL of Gram-negative A. baumannii (ATCC 19606).
(a) Schematic of the deep thigh infection model in which bacteria are injected intramuscularly at day 4 and peptides are administered intraperitoneally also at day 4 to assess their anti-infective activity. Mice were euthanized 4 days postinfection (day 8). Each group consisted of six mice (n = 6), and the bacterial loads used to infect the mice derived from three different inocula. […] Polymyxin B (0.006 mg/kg) and levofloxacin (0.014 mg/kg) were used as the reference antibiotics. Statistical significance was done using one-way ANOVA followed by Dunnett’s test. Violin plots represent the median, upper quartile, and lower quartile. (c) Mouse weight was monitored to exclude possible toxic effects of the peptides.
Six-week-old female CD-1 mice (obtained from Charles River; stock number 18679700-022) underwent neutropenia induction via two intraperitoneal doses of cyclophosphamide (150 mg kg^–^1) administered with a 72 h interval. One day later, the mice received an intramuscular injection containing A. baumannii ATCC 19606 (10^6 CFU mL^–1) in the right thigh. Bacteria were cultured in LB broth, washed twice with PBS (pH 7.4), and resuspended to the desired concentration. […] Polymyxin B (0.006 mg/kg) and levofloxacin (0.014 mg/kg) were used as the reference antibiotics. Prior to each injection, mice were anesthetized with isoflurane and their respiratory rate and pedal reflexes were monitored. Subsequently, we observed the infection establishment and euthanized the mice. The infected area was excised 4 days postinfection (i.e., 8 days after the beginning of the experiment), homogenized using a bead beater for 20 min (25 Hz), and 10-fold serially diluted for CFU quantification on MacConkey agar plates. Each experimental group comprised three mice. All experiments were conducted blindly, and no animals were excluded from the analysis. Statistical significance was assessed using one-way ANOVA followed by Dunnett’s test on log10-transformed data to mitigate outlier effects; p values are reported for each group, with all groups compared to the untreated control group.
Data set [16] deals with murine macrophages RAW 264.7. Conditions: 24 h. Put shortly: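 RAW 264.7 murine macrophages seeded at 4 × 10^4 cells/well in DMEM with 2% FBS, then exposed to peptides (2–128 μM) for 24 h at 37 °C. Viability by MTT (0.5 mg/mL, 4 h) reduction to formazan, dissolved in acidified isopropanol, read at OD570; untreated cells as negative control.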

For orientation: MIC means the least concentration at which growth counts as inhibited. The low end stands for a more susceptible organism, the high end for a less susceptible organism. The IC50 is the concentration that gives 50% inhibition. Read a low IC50 as greater potency.

Take “H-HHHHLKKILKKLFQFINQLDNQLQDIHHHH-OH [LP40]”: the MIC in [1] (24 h, MHB) was more than 50 µM. Moreover, the “MIC against E. coli (TOP10)” value in data set [1] (TOP10, 24 h, pH 6) is 0.4 µM. Further, the IC50 in data set [2] is 7.1 µM; in [3], 5.6 µM; in data set [4], 9 µM; in data set [5], 190 µM.

In the case of “KKKKLKKILKKLFQFINQLDNQLQDIKKKK-NH2 [LP18]”, the “pH dependence of antimicrobial activity” value in data set [1] (pH 8 and 6) is “independent of pH”. Further, the MIC in data set [6] is 16 µM; in data set [7], more than 32 µM; in [8], 3.1 µM; in [9] it was more than 16 µM; in data set [10], more than 32 µM; in [11], more than 32 µM. Besides, the figures for the MIC in [12], in [13] and in data set [14] were 11 µM, 16 µM and more than 60 µM, respectively. Further, the “Change in mouse weight” value in data set [15] was “no significant change in mouse weight”. This substance also returned a half-maximal inhibitory concentration (IC50) in data set [16] of 25 µM.

As to “KKKKLKKILKKLFQFINQLDNQLQDIKQNK-NH2 [LP1]”, the MIC is more than 32 µM in [6]; more than 32 µM in [7]; 3.1 µM in [8]; more than 16 µM in data set [9]; more than 32 µM in [10]; more than 32 µM in [11]. The values for the MIC in data set [12], in [13] and in data set [14] were more than 16 µM, more than 32 µM and more than 60 µM, respectively. Also, the IC50 was 4.7 µM in data set [2]; 4.4 µM in data set [3]; 4.9 µM in data set [4]; 1.4 µM in data set [5]; 44 µM in data set [16]. In addition, the “Change in mouse weight” value in [15] is listed as “no significant change in mouse weight”.
